Laboratory results from patent publication US20090081170A1, “Cardiac progenitor cells” (priority 2007, published 2009).

How the values were obtained:
[1] = system: epicardial explants from E10.5 hearts; experiment: Embryonic epicardial explant cultures; type: cell-based, mouse; settings: E10.5 explants
Excerpt: In order to support our in vivo phenotype analyses and assess a direct effect of Tβ4 on developing epicardium, we established epicardial explant cultures from wild-type hearts13. We initially derived epicardial explants from stages E10.5 to E16.5 and postnatal day 1 (P1) neonates, treated with either, Tβ4, with VEGF and FGF7 [59], or a combination of Tβ4 and growth factors. Explants from E10.5 hearts, coincident with the formation of the epicardium, produced extensive outgrowths that differentiated into SMαA- and Tie2-positive cells (FIG. 3 b).

[2] = system: Akt (P-Ser 473); experiment: Tβ4 treatment of C2C12 myoblast cells, Akt phosphorylation; type: cell-based, mouse; settings: C2C12 myoblasts, Tβ4 10 ng/ml
Description: Western blotting was performed using standard methods (Tris-Tricine 4-20% gradient SDS-PAGE for blotting of Tβ4 or Tβ10 peptides and Tris-glycine SDS-PAGE for all other proteins) using antibodies against Tβ4 (abcam), Tβ10 (Biodesign International), Tie-2 (Santa Cruz), SMαA (Sigma), GAPDH (Chemicon), Caspase-8 (Santa Cruz), Cleaved caspase-3, total Akt and Phospho-Akt (both Cell Signalling Technology).
C2C12 cells were cultured in DMEM containing 10% FBS. Tβ4 (10 ng/ml, mmundiagnostik AG) was added and cells harvested over a time course to assess the degree of phosphorylation (activation) of Akt.

[3] = system: adult intact mouse hearts; experiment: Gain of function model: Tβ4 administration to intact adult mice (western, immunofluorescence, perfused vessel counts); type: in vivo
Description: For in vivo studies, Western blotting, immunofluorescence and immunohistochemistry were performed using standard protocols with the following antibodies: Ki67 (Dako Cytomation), SMαA, sarcomeric α-actinin (Sigma), cardiac myosin binding protein C (E. Ehler), CD31/PECAM-1, CD4, CD8b (all BD Pharmingen), Nkx2.5, VEGF, Tie-2 (all Santa Cruz), GAPDH, Tbx18 (both Chemicon), Isl-1 (clone 39.4D5, Developmental Studies Hybridoma Bank), Tbx18, TNFα, IL-6, IL-10, GFP (full length—detects EYFP), MCP1, cTnT, F4/80, CD45, MPO, (all abcam), Living colours Av peptide, polyclonal and mouse monoclonal JL-8 antibodies (detect EYFP, Clontech) Cx43 (Zymed) and Raldh2 (gift of P. McCaffery). Images were acquired using either a Zeiss Axiolmager with ApoTome or a Zeiss LSM 510 confocal microscope equipped with argon and helium neon lasers using a 63×/1.4 lens.
Wild type (WT) C57B1/6 or Cx40-EGFP [46] male mice (25-30 g) received intraperitoneal injection of Tβ4 (150 μg in 0.1 ml PBS) or vehicle (0.1 ml PBS) every 2 days for up to 1 week or every 3 days for up to 4 weeks. Doses were based on previous studies. WT hearts were harvested after 2, 4, 7, 14 and 28 days and bisected transversely; the apex was snap frozen for protein preparation and the remaining tissue was fixed in 4% PFA for 2 hours for cryosectioning. Cx40-EGFP hearts were harvested after 7, 14 and 28 days and fixed, as above, for cryosectioning. Prior to harvest at the 28 d time point, Cx40-EGFP mice were intravenously injected with rhodamine-conjugated dextran (70 kDa, Invitrogen) at 2 mg per 20 g body weight, to assess coronary vessel perfusion.
The minimum requirement for Tβ4 to promote EPDC-derived vascular endothelial and smooth muscle cells, was reported previously. To investigate whether Tβ4 could stimulate new vessel growth in vivo, we established a gain of function mouse model by intraperitoneal injection of Tβ4 or vehicle (injections of 150 μg in 0.1 ml PBS every 2 days for first 4 days and every 3 days thereafter) into wild type 8 week old adult mice. Hearts were examined by western analysis and immunohistochemistry (IHC) for vascular markers and evidence of new coronaries at 2, 4, 7, 14 and 28 days post-treatment.
We next determined the presence of adult EPDC-derived cardiomyocytes in vivo, in both a gain of function (intact heart) mouse model, established by intraperitoneal injection of Tβ4 or vehicle (PBS) into wild type adult mice, and an injury model of myocardial infarctions (by coronary artery ligation) in adult mice (n=27 MIs in total), treated with either Tβ4

[4] = intact heart, 2 days of treatment
[5] = intact heart, days 2-7 of treatment, 150 μg i.p.

Thymosin β4 [Tβ4]
numbers of SMαA- and Tie2-positive cells [1]: significantly increased
time to Akt activation (P-Ser 473) [2]: ≤ 10 min
increase in numbers of perfused coronary vessels vs controls ([3]; Cx40-EGFP mice, rhodamine-dextran, 28 days of treatment): 1.2 fold
number of perfused vessels per section +/−SEM ([3]; Cx40-EGFP mice, rhodamine-dextran, 28 days of treatment, n=3): 70.7+/−3.62
Raldh2 up-regulation vs vehicle (western) ([3]; gain of function, intact heart): 6.3 fold
Tbx18 up-regulation vs vehicle (western) ([3]; gain of function, intact heart): 5.3 fold
phospho-histone H3 (P-HH3) elevated levels (proliferation) ([3]; intact heart): 9.1 fold
PECAM increase vs controls (western) [3, 4]: 9.3 fold
SMαA increase vs controls (western) [3, 4]: 9.8 fold
Tie2 increase vs controls (western) [3, 4]: 2 fold
VEGF increase vs controls (western) [3, 4]: 4.8 fold
Isl-1 up-regulation vs vehicle (western) [3, 5]: 4.3 fold
Nkx2.5 up-regulation vs vehicle (western) [3, 5]: 2.7 fold
